{"source": "patent US10518266B2", "about": "“Microtiter plate and uses thereof” (ONEXIO BIOSYSTEMS LLC, priority 2016, dated 2019)", "assay_type_in_all_cases": "cell-based", "key": {"[1]": {"tested_on": "ER-transactivation in MVLNs", "test": "ER-transactivation in MVLN luciferase cells co-cultured with HepaRG cells in the device", "conditions": "MVLN co-cultured with HepaRG vs mono-culture; FIG. 18C"}, "HEK293 cells [2]": {"tested_on": "HEK293 cells"}, "HEK293 cells [3]": {"tested_on": "HEK293 cells", "test": "Conferred cytotoxicity assay, HEK293 cells in co-culture with primary human hepatocytes in the device", "conditions": "primary human hepatocytes (PHH) as bioactivator vs HEK293 mono-culture; FIG. 18a,b"}, "[4]": {"tested_on": "estrogen receptor driven luciferase reporter protein stably expressed in the MVLN cell line", "test": "MVLN estrogen receptor driven luciferase reporter assay, co-culture with HepG2 cells in the device"}}, "note": "Read-outs that look alike come from different tables or passages of the source.", "data": [{"smiles": "Oc1ccc(Cc2ccccc2)cc1", "note": "[4-benzylphenol]", "values": [{"measurement": "ER-transactivation in MVLNs (metabolic competence of the device)", "setting": "[1]", "result": "shows competence"}]}, {"smiles": "COc1cc2c(c3oc(=O)c4c(c13)CCC4=O)[C@@H]1C=CO[C@@H]1O2", "note": "[aflatoxin]", "values": [{"measurement": "conferred toxicity to HEK293 cells", "setting": "HEK293 cells [2]", "result": "conferred toxicity"}]}, {"smiles": "COc1cccc2c1C(=O)c1c(O)c3c(c(O)c1C2=O)C[C@@](O)(C(=O)CO)C[C@@H]3O[C@H]1C[C@H](N)[C@H](O)[C@H](C)O1", "note": "[doxorubicin]", "values": [{"measurement": "conferred toxicity to HEK293 cells", "setting": "HEK293 cells [3]", "result": "conferred toxicity"}]}, {"smiles": "C[C@]12CC[C@H]3[C@@H](CCC4=CC(=O)CC[C@@]43C)[C@@H]1CC[C@@H]2O", "note": "[testosterone]", "values": [{"measurement": "MVLN reporter activity", "setting": "[4]", "result": "activates MVLN reporter activity"}]}]}
